In patent publication US20080039629A1, “Benzothniazole compositions and their use as ubiquition ligation inhibitors” (RIGEL PHARMACEUTICALS, INC., priority 2003, published 2008):

Molecular target: T1, E1 and His-E2 Ubch10 (Homo sapiens, UniProt P22314)
T1 construct: host or cells: E. coli (His-Ubch10); Sf9 insect cells (E1)
T1 sequence (P22314 1-1058): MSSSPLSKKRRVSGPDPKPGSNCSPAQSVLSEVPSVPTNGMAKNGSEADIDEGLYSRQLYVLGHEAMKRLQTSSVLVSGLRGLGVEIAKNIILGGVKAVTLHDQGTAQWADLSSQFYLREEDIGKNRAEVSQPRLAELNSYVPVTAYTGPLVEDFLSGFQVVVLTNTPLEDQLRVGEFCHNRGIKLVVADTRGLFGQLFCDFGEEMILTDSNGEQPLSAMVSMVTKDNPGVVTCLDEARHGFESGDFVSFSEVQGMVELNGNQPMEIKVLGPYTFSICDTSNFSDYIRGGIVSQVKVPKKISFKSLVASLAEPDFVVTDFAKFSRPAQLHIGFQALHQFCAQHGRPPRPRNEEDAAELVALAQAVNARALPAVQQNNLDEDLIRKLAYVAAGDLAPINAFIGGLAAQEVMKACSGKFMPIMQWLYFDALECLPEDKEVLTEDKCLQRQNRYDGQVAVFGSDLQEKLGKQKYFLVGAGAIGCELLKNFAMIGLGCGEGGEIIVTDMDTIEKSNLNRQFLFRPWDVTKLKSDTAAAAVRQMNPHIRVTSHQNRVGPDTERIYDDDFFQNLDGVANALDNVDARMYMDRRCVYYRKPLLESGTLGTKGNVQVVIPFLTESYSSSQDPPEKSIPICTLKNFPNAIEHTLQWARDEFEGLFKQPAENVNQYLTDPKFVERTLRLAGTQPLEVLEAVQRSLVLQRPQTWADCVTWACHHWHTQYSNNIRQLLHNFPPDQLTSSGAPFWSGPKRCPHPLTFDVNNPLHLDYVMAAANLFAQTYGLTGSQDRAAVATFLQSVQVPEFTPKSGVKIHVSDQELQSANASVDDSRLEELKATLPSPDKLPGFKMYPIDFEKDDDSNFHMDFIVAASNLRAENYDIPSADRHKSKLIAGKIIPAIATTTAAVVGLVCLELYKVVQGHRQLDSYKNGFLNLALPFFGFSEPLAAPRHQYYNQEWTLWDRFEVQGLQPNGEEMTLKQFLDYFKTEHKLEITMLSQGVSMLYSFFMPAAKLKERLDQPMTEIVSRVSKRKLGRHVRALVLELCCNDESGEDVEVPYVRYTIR
Experiment: E1 to E2 transfer assay, His-E2 Ubch10, 1.0 μM ATP (low ATP)
Type: biochemical
Settings: Table 5, ATP inhibition properties; inhibition measured using IC50 values
Summary of the method: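 His-Ubch10 (20 ng/well), E1 (10 ng/well) and Flag-ubiquitin (100 ng) reacted 1 h at room temperature on nickel plates in 62.5 mM Tris pH 7.5, 0.75 mM DTT, 1.0 μM ATP with inhibitor. E2-ubiquitin complex detected by anti-Flag/HRP luminescence; IC50 determined.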

SMILES | UBC10
COc1ccc2nc(NC(=O)c3ccccc3)sc2n1 [Compound 139, N-(5-methoxythiazolo[5,4-b]pyridin-2-yl)benzamide] | −− (−− indicates marginal or no inhibition detected with this assay)
COc1ccc2nc(NC(=O)c3ccc(Cl)cc3Cl)sc2n1 [Compound 140, 2,4-dichloro-N-(5-methoxythiazolo[5,4-b]pyridin-2-yl)benzamide] | −− (−− indicates marginal or no inhibition detected with this assay)
COc1ccc2nc(NC(=O)c3cccc(F)c3)sc2n1 [Compound 141, 3-fluoro-N-(5-methoxythiazolo[5,4-b]pyridin-2-yl)benzamide] | ++ (++ indicates inhibition at 50 μM or or less)
COc1ccc2nc(NC(=O)c3cccc(Cl)c3)sc2n1 [Compound 142, 3-chloro-N-(5-methoxythiazolo[5,4-b]pyridin-2-yl)benzamide] | ++ (++ indicates inhibition at 50 μM or or less)
COc1ccc2nc(NC(=O)c3sccc3Cl)sc2n1 [Compound 144, 3-chloro-N-(5-methoxythiazolo[5,4-b]pyridin-2-yl)thiophene-2-carboxamide] | −− (−− indicates marginal or no inhibition detected with this assay)
COc1ccc2nc(NC(=O)c3c(F)cccc3F)sc2n1 [Compound 145, 2,6-difluoro-N-(5-methoxythiazolo[5,4-b]pyridin-2-yl)benzamide] | −− (−− indicates marginal or no inhibition detected with this assay)
COc1ccc2nc(NC(=O)c3ccc(F)c(F)c3)sc2n1 [Compound 146, 3,4-difluoro-N-(5-methoxythiazolo[5,4-b]pyridin-2-yl)benzamide] | ++ (++ indicates inhibition at 50 μM or or less)
COc1ccc2nc(NC(=O)c3ccc(C(F)(F)F)cc3)sc2n1 [Compound 147, N-(5-methoxythiazolo[5,4-b]pyridin-2-yl)-4-(trifluoromethyl)benzamide] | −− (−− indicates marginal or no inhibition detected with this assay)
COc1ccc2nc(NC(=O)c3ccc(NC(C)=O)cc3)sc2n1 [Compound 149, 4-acetamido-N-(5-methoxythiazolo[5,4-b]pyridin-2-yl)benzamide] | ++ (++ indicates inhibition at 50 μM or or less)
COc1ccc2nc(NC(=O)c3ccc([N+](=O)[O-])cc3)sc2n1 [Compound 150, N-(5-methoxythiazolo[5,4-b]pyridin-2-yl)-4-nitrobenzamide] | ++ (++ indicates inhibition at 50 μM or or less)
COc1ccc(C(=O)Nc2nc3ccc(OC)nc3s2)cc1 [Compound 151, 4-methoxy-N-(5-methoxythiazolo[5,4-b]pyridin-2-yl)benzamide] | ++ (++ indicates inhibition at 50 μM or or less)
COc1ccc2nc(NC(=O)c3ccc(C)cc3)sc2n1 [Compound 152, N-(5-methoxythiazolo[5,4-b]pyridin-2-yl)-4-methylbenzamide] | ++ (++ indicates inhibition at 50 μM or or less)
COc1ccc2nc(NC(=O)c3ccco3)sc2n1 [Compound 153, N-(5-methoxythiazolo[5,4-b]pyridin-2-yl)furan-2-carboxamide] | ++ (++ indicates inhibition at 50 μM or or less)
COc1ccc2nc(NC(=O)c3ccc(F)cc3)sc2n1 [Compound 154, 4-fluoro-N-(5-methoxythiazolo[5,4-b]pyridin-2-yl)benzamide] | ++ (++ indicates inhibition at 50 μM or or less)
COc1ccc2nc(NC(=O)c3ccc(Cl)cc3)sc2n1 [Compound 155, 4-chloro-N-(5-methoxythiazolo[5,4-b]pyridin-2-yl)benzamide] | ++ (++ indicates inhibition at 50 μM or or less)
O=C(Nc1nc2ccccc2s1)c1ccc([N+](=O)[O-])o1 [Compound 156, N-(benzo[d]thiazol-2-yl)-5-nitrofuran-2-carboxamide] | −− (−− indicates marginal or no inhibition detected with this assay)

SMILES | UBC10
O=C(Nc1nc2ccccc2s1)c1ccccc1Br [Compound 159, N-(benzo[d]thiazol-2-yl)-2-bromobenzamide] | ++ (++ indicates inhibition at 50 μM or or less)
O=C(Nc1nc2ccccc2s1)c1ccccc1F [Compound 164, N-(benzo[d]thiazol-2-yl)-2-fluorobenzamide] | −− (−− indicates marginal or no inhibition detected with this assay)
O=C(Nc1nc2ccccc2s1)c1ccccc1 [Compound 168, N-(benzo[d]thiazol-2-yl)benzamide] | −− (−− indicates marginal or no inhibition detected with this assay)
O=C(Nc1nc2ccccc2s1)c1ccccc1[N+](=O)[O-] [Compound 169, N-(benzo[d]thiazol-2-yl)-2-nitrobenzamide] | −− (−− indicates marginal or no inhibition detected with this assay)
CCCc1ccc(C(=O)Nc2nc3ccccc3s2)cc1 [Compound 170, N-(benzo[d]thiazol-2-yl)-4-propylbenzamide] | −− (−− indicates marginal or no inhibition detected with this assay)
O=C(Nc1nc2ccccc2s1)c1ccc(Br)cc1 [Compound 172, N-(benzo[d]thiazol-2-yl)-4-bromobenzamide] | −− (−− indicates marginal or no inhibition detected with this assay)
O=C(Nc1nc2ccccc2s1)c1cccc(F)c1 [Compound 174, N-(benzo[d]thiazol-2-yl)-3-fluorobenzamide] | −− (−− indicates marginal or no inhibition detected with this assay)
CC(C)(C)c1ccc(C(=O)Nc2nc3ccccc3s2)cc1 [Compound 176, N-(benzo[d]thiazol-2-yl)-4-tert-butylbenzamide] | −− (−− indicates marginal or no inhibition detected with this assay)
O=C(O)c1ccc2c(c1)C(=O)N(c1nc3ccccc3s1)C2=O [Compound 181, 2-(benzo[d]thiazol-2-yl)-1,3-dioxosioindoline-5-carboxylic acid] | −− (−− indicates marginal or no inhibition detected with this assay)
O=C(Nc1nc2ccccc2s1)c1cccc(Cl)c1 [Compound 186, N-(benzo[d]thiazol-2-yl)-3-chlorobenzamide] | −− (−− indicates marginal or no inhibition detected with this assay)
COc1cccc(C(=O)Nc2nc3ccccc3s2)c1 [Compound 189, N-(benzo[d]thiazol-2-yl)-3-methoxybenzamide] | −− (−− indicates marginal or no inhibition detected with this assay)
O=C(Nc1nc2ccccc2s1)c1ccccc1Cl [Compound 194, N-(benzo[d]thiazol-2-yl)-2-chlorobenzamide] | −− (−− indicates marginal or no inhibition detected with this assay)
O=C(Nc1nc2ccccc2s1)c1cccc(I)c1 [Compound 195, N-(benzo[d]thiazol-2-yl)-3-iodobenzamide] | ++ (++ indicates inhibition at 50 μM or or less)
O=C(Nc1nc2ccccc2s1)C1CCCCC1 [Compound 205, N-(benzo[d]thiazol-2-yl)cyclohexanecarboxamide] | −− (−− indicates marginal or no inhibition detected with this assay)
O=C(Nc1nc2ccccc2s1)c1ccc(Br)o1 [Compound 208, N-(benzo[b]thiazol-2-yl)-5-bromofuran-2-carboxamide] | −− (−− indicates marginal or no inhibition detected with this assay)
CC(C)c1ccc(C(=O)Nc2nc3ccccc3s2)cc1 [Compound 222, N-(benzo[d]thiazol-2-yl)-4-isopropylbenzamide] | −− (−− indicates marginal or no inhibition detected with this assay)
